We go through 31 molecules from patent US9884841B2, “Small molecule inhibitors of Mcl-1 and uses thereof” (The Regents of the University of Michigan, priority 2015, dated 2018).

As usually defined, the Ki is the equilibrium dissociation constant of an inhibitor or competing ligand from its target. A high value points to weaker binding.

For this assay, the target named is Mcl-1 (Homo sapiens, UniProt Q07820). Description: FP based binding assay to Mcl-1 (Bid BH3 peptide probe).
The mark [1] stands for this setting: Binding affinity of Mcl-1 inhibitors using FP based assay, Table 1.

Sequence of Mcl-1 (Q07820 whole entry): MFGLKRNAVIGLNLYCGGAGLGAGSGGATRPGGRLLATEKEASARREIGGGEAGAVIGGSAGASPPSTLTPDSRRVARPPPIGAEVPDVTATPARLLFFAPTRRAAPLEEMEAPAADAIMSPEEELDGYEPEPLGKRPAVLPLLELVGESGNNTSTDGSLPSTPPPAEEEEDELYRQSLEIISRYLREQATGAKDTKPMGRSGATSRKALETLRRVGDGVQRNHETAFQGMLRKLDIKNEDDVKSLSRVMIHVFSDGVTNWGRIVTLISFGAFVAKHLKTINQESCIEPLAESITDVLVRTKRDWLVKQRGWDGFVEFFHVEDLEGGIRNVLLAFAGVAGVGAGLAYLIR

Regarding `O=C(Nc1ccc(SCCc2ccccc2)cc1C(=O)O)c1ccccc1` [Compound 364, 2-Benzamido-5-(phenethylthio)benzoic acid], under setting [1], the Ki is 0.891 ± 0.185 µM.
`O=C(O)c1cc(SCCc2ccccc2)ccc1NS(=O)(=O)c1ccc(Oc2ccccc2)cc1` [Compound 376, 5-(Phenethylthio)-2-(4-phenoxyphenylsulfonamido)benzoic acid]: under setting [1], the affinity corresponds to a Ki of 0.044 ± 0.014 µM.
For `O=C(O)c1cc(SCCc2ccccc2)ccc1NS(=O)(=O)c1ccc(-c2ccccc2)cc1` [Compound 378, 2-([1,1′-biphenyl]-4-ylsulfonamido)-5-(phenethylthio)benzoic acid], the affinity under setting [1] corresponds to a Ki of 0.048 ± 0.012 µM.
Consider `O=C(O)c1cc(SCCc2ccccc2)ccc1NS(=O)(=O)c1ccc(-c2ccc(Cl)cc2)cc1` [Compound 380, 2-(4′-chloro-[1,1′-biphenyl]-4-ylsulfonamido)-5-(phenethylthio)benzoic acid], for which, for the setting “R1 optimisation starting from 368”, the “improvement of binding potency” value was found to be 16 fold. Besides, where the note is “binding affinity to Mcl-1”, the Ki amounted to 0.031 µM.
`O=C(O)c1cc(SCCc2ccccc2)ccc1NS(=O)(=O)c1ccccc1Br` [Compound 386, 2-(2-bromophenylsulfonamido)-5-(phenethylthio)benzoic acid] had an inhibitory constant (Ki) under setting [1] of 0.381 ± 0.066 µM.
Same read-out and setting: to `O=C(O)c1cc(SCc2ccccc2)ccc1NS(=O)(=O)c1ccccc1` [Compound 392, 5-(Benzylthio)-2-(phenylsulfonamido)benzoic acid] belongs 0.993 ± 0.178 µM.
Same read-out and setting: to `O=C(CSc1ccc(NS(=O)(=O)c2ccccc2)c(C(=O)O)c1)Nc1ccccc1` [Compound 395] belongs greater than 2 µM; to `O=C(O)c1cc(SCCc2ccccc2)ccc1NS(=O)(=O)N1CCN(c2ccccc2)CC1` [Compound 396, 5-(Phenethylthio)-2-(1-phenylpiperazine-4-sulfonamido)benzoic acid], 0.2 ± 0.03 µM; to `O=C(O)c1cc(SCCc2ccccc2)ccc1NS(=O)(=O)Cc1ccc(Cl)cc1` [Compound 398], 0.241 ± 0.089 µM.
`O=C(O)c1cc(NCCc2ccccc2)ccc1NS(=O)(=O)c1ccccc1` [Compound 404, 5-(phenethylamino)-2-(phenylsulfonamido)benzoic acid]: the affinity under setting [1] corresponds to a Ki of 5.74 ± 0.749 µM.
In turn, `O=C(CCSc1ccc(NS(=O)(=O)c2ccccc2)c(C(=O)O)c1)Nc1ccccc1` [Compound 410] registered a Ki under setting [1] of 0.233 ± 0.021 µM.
On to `O=C(O)c1cc(SCCc2ccccc2)ccc1NS(=O)(=O)N1CCN(Cc2ccccc2)CC1` [Compound 414, 2-(1-benzylpiperazine-4-sulfonamido)-5-(phenethylthio)benzoic acid], for which the affinity under setting [1], expressed as Ki, was 0.275 ± 0.021 µM.
On to `Nc1ccc(SCCc2ccccc2)cc1C(=O)O` [Compound 416, 2-Amino-5-(phenethylthio)benzoic acid], for which the affinity under setting [1] corresponds to a Ki of 1.45 ± 0.132 µM.
On the same count and under the same terms, the value for `O=C(O)c1cc(SCCc2ccccc2)ccc1NS(=O)(=O)c1ccc(C2CCCCC2)cc1` [Compound 418, 2-(4-cyclohexylphenylsulfonamido)-5-(phenethylthio)benzoic acid] was 0.031 ± 0.01 µM; that for `O=C(CCSc1ccc(NS(=O)(=O)N2CCN(c3ccccc3)CC2)c(C(=O)O)c1)Nc1ccccc1` [Compound 429] was 2.24 ± 0.431 µM.
Molecule `CC(C)(C)c1ccc(N2CCN(S(=O)(=O)Nc3ccc(SCCC(=O)Nc4ccccc4)cc3C(=O)O)CC2)cc1` [Compound 435] registered a Ki under setting [1] of 0.245 ± 0.048 µM.
The same measure, in the same setting: the value for `O=C(O)c1cc(SCCc2ccccc2)ccc1NS(=O)(=O)CCc1ccccc1` [Compound 443, 5-(phenethylthio)-2-(2-phenylethylsulfonamido)benzoic acid] was 0.343 ± 0.033 µM.
As to `O=C(O)c1ccccc1NS(=O)(=O)c1ccc2ccccc2c1` [Compound 453, 2-(naphthalene-2-sulfonamido)benzoic acid], under setting [1], the inhibitory constant (Ki) was greater than 2 µM.
In turn, `O=C(CCc1ccccc1)Nc1ccc(SCCc2ccccc2)cc1C(=O)O` [Compound 454, 5-(phenethylthio)-2-(3-phenylpropanamido)benzoic acid] registered a Ki under setting [1] of 0.874 ± 0.246 µM.
The same measure, in the same setting: the value for `O=C(O)c1ccccc1NS(=O)(=O)c1ccccc1` [Compound 455, 2-(phenylsulfonamido)benzoic acid] was greater than 2 µM.
In the case of `O=C(O)c1cc(SCc2ccccc2)ccc1NS(=O)(=O)N1CCN(c2ccccc2)CC1` [Compound 456, 5-(benzylthio)-2-(1-phenylpiperazine-4-sulfonamido)benzoic acid], the inhibition constant (Ki) under setting [1] was determined as 0.387 ± 0.138 µM.
The same measure, in the same setting: the value for `O=C(O)c1cc(SCCc2ccccc2)ccc1NS(=O)(=O)c1ccccc1-c1ccccc1` [Compound 458, 2-([1,1′-biphenyl]-2-ylsulfonamido)-5-(phenethylthio)benzoic acid] was 0.079 ± 0.025 µM.
Consider `O=C(O)c1ccccc1NS(=O)(=O)N1CCN(c2ccccc2)CC1` [Compound 460, 2-(1-phenylpiperazine-4-sulfonamido)benzoic acid], for which the “Mcl-1 binding, in words” value was “deleterious”. In addition, the inhibition constant Ki under setting [1] is greater than 2 µM.
As for `CCCc1ccc(-c2ccc(NS(=O)(=O)c3ccc4ccccc4c3)c(C(=O)O)c2)cc1` [Compound 466, 4-(naphthalene-2-sulfonamido)-4′-propyl-[1,1′-biphenyl]-3-carboxylic acid], the affinity under setting [1] corresponds to a Ki of 0.094 ± 0.017 µM.
`Nc1ccc(-c2ccccc2COc2cccc(C(F)(F)F)c2)cc1C(=O)O` [Compound 467, 4-amino-2′-((3-(trifluoromethyl)phenoxy)methyl)-[1,1′-biphenyl]-3-carboxylic acid]: the affinity under setting [1] corresponds to a Ki of 1.16 ± 0.196 µM.
On to `O=C(O)c1cc(-c2ccccc2COc2cccc(C(F)(F)F)c2)ccc1NS(=O)(=O)c1ccc2ccccc2c1` [Compound 468, 4-(naphthalene-2-sulfonamido)-2′-((3-(trifluoromethyl)phenoxy)methyl)-[1,1′-biphenyl]-3-carboxylic acid], for which the inhibitory constant (Ki) under setting [1] came to 0.05 ± 0.011 µM.
The same measure, in the same setting: the value for `Nc1ccc(-c2ccc(COc3cccc(C(F)(F)F)c3)cc2)cc1C(=O)O` [Compound 469, 4-amino-4′-((3-(trifluoromethyl)phenoxy)methyl)-[1,1′-biphenyl]-3-carboxylic acid] was 2.36 ± 0.08 µM; that for `O=C(O)c1cc(-c2ccc(COc3cccc(C(F)(F)F)c3)cc2)ccc1NS(=O)(=O)c1ccc2ccccc2c1` [Compound 471, 4-(naphthalene-2-sulfonamido)-4′-((3-(trifluoromethyl)phenoxy)methyl)-[1,1′-biphenyl]-3-carboxylic acid] was 0.036 ± 0.006 µM; that for `O=C(O)c1cc(-c2ccccc2COc2cccc3ccccc23)ccc1NS(=O)(=O)c1ccc2ccccc2c1` [Compound 473, 2′-((naphthalen-1-yloxy)methyl)-4-(naphthalene-2-sulfonamido)-[1,1′-biphenyl]-3-carboxylic acid] was 0.031 ± 0.009 µM.
For `CC(C)c1cc(NS(=O)(=O)c2ccc3ccccc3c2)c(C(=O)O)cc1-c1ccc(COc2cccc(C(F)(F)F)c2)cc1` [Compound 474, 6-isopropyl-4-(naphthalene-2-sulfonamido)-4′-((3-(trifluoromethyl)phenoxy)methyl)-[1,1′-biphenyl]-3-carboxylic acid], the Ki under setting [1] came to 0.023 ± 0.003 µM.
`O=C(O)c1cc(-c2ccc(COc3cccc4ccccc34)cc2)ccc1NS(=O)(=O)c1ccc2ccccc2c1` [Compound 475, 4′-((naphthalen-1-yloxy)methyl)-4-(naphthalene-2-sulfonamido)-[1,1′-biphenyl]-3-carboxylic acid] came in with an inhibition constant Ki (binding affinity to Mcl-1) of 0.027 ± 0.005 µM. In addition, the “improvement in comparison with 382” value (relative to 382) amounted to 6 fold.
